One compound from patent US20210007350A1, “USE OF A FUNGICIDAL COMPOSITION AS TREATMENT FOR POWDERY MILDEW” (DESARROLLO AGRICOLA Y MINERO, S.A., priority 2017, published 2021) can be followed below.

The test concerns powdery mildew (Sphaerotheca macularis). Put plainly: Control of powdery mildew in greenhouse strawberry cultivation (field efficacy trial). Type of test: in vivo. To be noted: Myclobutanil 20 g/l, dose 30 ml/hl. As to the method:
To reflect the efficacy of the invention presented in this description, comparative studies were performed in commercial conditions. Thus, commercial application of the present fungicidal composition is carried out by ground spraying with manual sprayers, motor pumps, or other similar means. The invention is further characterised by a specific use with a product application dose of between 0.05 l/hl and 0.5 l/hl, and preferably between 0.2 l/hl and 0.3 l/hl of the composition described herein.
The conditions of the application solution will be those normally used for the crops described. The following examples show the spraying case.
Example 1: Application of the Fungicidal Composition for the Control of Powdery Mildew (Sphaerotheca macularis) in Strawberries
The aim of the protocol was to evaluate the effect of the fungicidal composition applied in different doses for the control of powdery mildew (Sphaerotheca macularis) in greenhouse strawberry cultivation and compare its efficacy against that of a standard chemical phytosanitary product such as myclobutanil. Location: Almeria (Spain). Variety: Benicia.
Untreated control specimen
Myclobutanil 20 g/l, dose 30 ml/hl
Fungicidal composition, dose 0.2l/hl
Fungicidal composition, dose 0.3l/hl
Number of applications: 4
Use of solution: 1000 l/ha.
Parameters evaluated: Efficacy.
Efficacy data were taken at the following times.
T0: 0, before first application.
T1: 10 days after the first application and just before the second application.
T2: 9 days after the second application and just before the third application.
T3: 9 days after the third application and just before the fourth application
T4: 7 days after the fourth application.

As to `CCCCC(C#N)(Cn1cncn1)c1ccc(Cl)cc1` (centres unmarked) [Myclobutanil, myclobutanil], the “efficacy % (T0)” value (T0: before first application, strawberry var. Benicia, greenhouse) is listed as 0%. Besides, the “efficacy % (T1)” value (T1: 10 days after the first application) was 92.4%. In addition, for the setting “T2: 9 days after the second application”, the “efficacy % (T2)” value came to 97.0%. For the same compound, where the note is “T3: 9 days after the third application”, the “efficacy % (T3)” value is reported as 95.8%. For the same compound, the “efficacy % (T4)” value (T4: 7 days after the fourth application) is 98.3%.
